Reference: patent publication US5948749A, “Pharmaceutical preparations for intranasal administration” (Fuji Yakuhin Company, Limited, priority 1996, dated 1999)

System: ophthalmic mucous membrane
Conditions: rabbit, in vivo
Description: The testing method of the present test was based on the guidelines given by OECD. That means, 3 rabbits were used in this study, and a test drug was administered once into one eye of a rabbit in the conjunctival sac, and the other eye was used as control. […] Eyes were washed using lukewarm water of about 35° C. at the observation 24 hours after the administration. Scores of the conjunctival reaction obtained by administration of each test drug were calculated according to the assessment criteria of Draize method. The maximum of total score at each observation time was obtained for each test drug and for each test animal, and the average was calculated, then irritation evaluation in 8 stages (FIG. 9) was carried out according to the Kay and Calandra ophthalmic mucous membrane irritation classification method.

average value (score) of the maximum Draize score: 29.0
Substance: sodium polystyrene sulphonate
Kay and Calandra ophthalmic mucous membrane irritation classification (8 levels): Moderately irritating
